Test results: patent publication US8722910B2, “Diyne compositions” (Evolva AG, priority 2009, dated 2014)
≈ marks a conversion by molar mass, not a printed value.

Experiments:
[1] = tested on: C. albicans, Fluconazole, Voriconazole, Itraconazole and/or Caspofungin resistant isolates; assay: Susceptibility of resistant clinical isolates (MIC, broth dilution); type: cell-based; settings: for MIC90: Candida albicans
[2] = tested on: C. glabrata, Fluconazole, Voriconazole, Itraconazole and/or Caspofungin resistant isolates; assay: as above; type: cell-based; settings: for MIC90: Nakaseomyces glabratus
Protocol: The efficacy of compound IV″ was investigated on 563 clinical isolates of 33 human fungal pathogens. […] For species with n≧10, the MIC90 (MIC, minimal inhibitory concentration) is given as ng/ml. For species with n≦10, the MIC range is given as ng/ml. 24 h and 48 h reads are indicated (Table 1).
The MIC90 was calculated for the indicated species.

| Structure (SMILES) | MIC90 [1] [µg/mL] | MIC90/MIC range 48 h ([1]; resistant C. albicans isolates (n = 20), MIC90, 48 h) [µg/mL] | MIC90 [2] [µg/mL] | MIC90/MIC range 48 h ([2]; resistant C. glabrata isolates (n = 21), MIC90, 48 h) [µg/mL] |
| --- | --- | --- | --- | --- |
| O=C([O-])CCCCCCC/C=C\C#CC#Cc1ccco1.[K+] [Compound IV″, potassium (Z)-14-(furan-2-yl)tetradeca-9-en-11,13-diynoate] | 0.0025 | 0.0025 | 0.02 | 0.02 |
| C[C@@H](c1ncncc1F)[C@](O)(Cn1cncn1)c1ccc(F)cc1F [Voriconazole] | > 0.5 |  | 0.5 (≈ 1.43 µM) |  |
